Assay results: patent US9169254B2, “Spiroimidazolone derivative” (Chugai Seiyaku Kabushiki Kaisha, priority 2009, dated 2015)

Target: T1, human PTH1 receptor (Homo sapiens, UniProt Q03431)
T1 sequence (Q03431 27-593): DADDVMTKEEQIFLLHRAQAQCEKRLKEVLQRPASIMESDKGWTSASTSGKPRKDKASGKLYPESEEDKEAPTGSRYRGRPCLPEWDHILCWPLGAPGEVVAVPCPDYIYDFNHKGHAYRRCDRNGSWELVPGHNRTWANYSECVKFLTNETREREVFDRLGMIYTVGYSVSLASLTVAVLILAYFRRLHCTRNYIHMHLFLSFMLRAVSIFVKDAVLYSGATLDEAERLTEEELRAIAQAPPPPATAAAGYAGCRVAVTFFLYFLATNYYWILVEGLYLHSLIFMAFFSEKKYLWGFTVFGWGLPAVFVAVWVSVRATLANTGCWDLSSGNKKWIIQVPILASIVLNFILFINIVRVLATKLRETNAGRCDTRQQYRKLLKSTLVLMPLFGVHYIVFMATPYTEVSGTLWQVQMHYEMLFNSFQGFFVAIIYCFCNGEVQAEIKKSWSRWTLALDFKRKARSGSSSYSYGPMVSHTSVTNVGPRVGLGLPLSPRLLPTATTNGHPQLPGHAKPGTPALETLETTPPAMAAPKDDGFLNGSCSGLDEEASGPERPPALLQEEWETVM
Experiment: In vitro cAMP signal activity in HKRK-B7 cells (LLC-PK1 cells overexpressing the human PTH1 receptor)
Assay type: cell-based
Details: HKRK-B7 cells; compound at 1×10^−3 M; cAMP produced as percentage of that produced by hPTH(1-34) at 100 nM

cAMP production activity (%) | SMILES
58 | Cc1cc(S(=O)(=O)NCc2cccnc2)ccc1CCS(=O)(=O)N1CCC2(CC1)N=C(c1cccc(C(F)(F)F)c1)NC2=O [Compound 852, 3-methyl-4-{2-[4-oxo-2-(3-trifluoromethyl-phenyl)-1,3,8-triaza-spiro[4.5]dec-1-ene-8-sulfonyl]-ethyl}-N-pyridin-3-ylmethyl-benzenesulfonamide]
63 | Cc1cc(S(=O)(=O)NC2CCC(O)CC2)ccc1CCS(=O)(=O)N1CCC2(CC1)N=C(c1cccc(C(F)(F)F)c1)NC2=O (stereo not drawn) [Compound 853, N-(4-hydroxy-cyclohexyl)-3-methyl-4-{2-[4-oxo-2-(3-trifluoromethyl-phenyl)-1,3,8-triaza-spiro[4.5]dec-1-ene-8-sulfonyl]-ethyl}-benzenesulfonamide]
80 | Cc1cc(S(=O)(=O)NC(CO)(CO)CO)ccc1CCS(=O)(=O)N1CCC2(CC1)N=C(c1cccc(C(F)(F)F)c1)NC2=O [Compound 854, N-(2-hydroxy-1,1-bis-hydroxymethyl-ethyl)-3-methyl-4-{2-[4-oxo-2-(3-trifluoromethyl-phenyl)-1,3,8-triaza-spiro[4.5]dec-1-ene-8-sulfonyl]-ethyl}-benzenesulfonamide]
81 | Cc1cc(C(=O)N2CCCC2)ccc1CCS(=O)(=O)N1CCC2(CC1)N=C(c1ccc(F)c(C(F)(F)F)c1)NC2=O [Compound 856, 2-(4-fluoro-3-trifluoromethyl-phenyl)-8-{2-[2-methyl-4-(pyrrolidine-1-carbonyl)-phenyl]-ethanesulfonyl}-1,3,8-triaza-spiro[4.5]dec-1-en-4-one]
89 | Cc1cc(N2C(=O)CC[C@@H]2CO)ccc1CCS(=O)(=O)N1CCC2(CC1)N=C(c1ccc(F)c(C(F)(F)F)c1)NC2=O [Compound 857, 2-(4-fluoro-3-trifluoromethyl-phenyl)-8-{2-[4-((R)-2-hydroxymethyl-5-oxo-pyrrolidin-1-yl)-2-methyl-phenyl]-ethanesulfonyl}-1,3,8-triaza-spiro[4.5]dec-1-en-4-one]
100 | Cc1cc(N2C(=O)CC[C@H]2CO)ccc1CCS(=O)(=O)N1CCC2(CC1)N=C(c1ccc(F)c(C(F)(F)F)c1)NC2=O [Compound 858, 2-(4-fluoro-3-trifluoromethyl-phenyl)-8-{2-[4-((S)-2-hydroxymethyl-5-oxo-pyrrolidin-1-yl)-2-methyl-phenyl]-ethanesulfonyl}-1,3,8-triaza-spiro[4.5]dec-1-en-4-one]
26 | Cc1cc(OC2CCN(C(=O)OC(C)(C)C)CC2)ccc1CCS(=O)(=O)N1CCC2(CC1)N=C(c1cccc(OC(F)(F)F)c1)NC2=O [Compound 859, 4-(3-methyl-4-{2-[4-oxo-2-(3-trifluoromethoxy-phenyl)-1,3,8-triaza-spiro[4.5]dec-1-ene-8-sulfonyl]-ethyl}-phenoxy)-piperidine-1-carboxylic acid tert-butyl ester]
36 | Cc1cc(N2CCC2=O)ccc1CCS(=O)(=O)N1CCC2(CC1)N=C(C1CCCCC1)NC2=O [Compound 861, 2-cyclohexyl-8-{2-[2-methyl-4-(2-oxo-azetidin-1-yl)-phenyl]-ethanesulfonyl}-1,3,8-triaza-spiro[4.5]dec-1-en-4-one]
55 | Cc1cc(N2C(=O)CN(C)C2=O)ccc1CCS(=O)(=O)N1CCC2(CC1)N=C(C1CCC(C)CC1)NC2=O (stereo not drawn) [Compound 862, 1-methyl-3-(3-methyl-4-{2-[2-(4-methyl-cyclohexyl)-4-oxo-1,3,8-triaza-spiro[4.5]dec-1-ene-8-sulfonyl]-ethyl}-phenyl)-imidazolidine-2,4-dione]
67 | Cc1cc(N2C(=O)NC(C)(C)C2=O)ccc1CCS(=O)(=O)N1CCC2(CC1)N=C(C1CCC(C)CC1)NC2=O (stereo not drawn) [Compound 863, 5,5-dimethyl-3-(3-methyl-4-{2-[2-(4-methyl-cyclohexyl)-4-oxo-1,3,8-triaza-spiro[4.5]dec-1-ene-8-sulfonyl]-ethyl}-phenyl)-imidazolidine-2,4-dione]
100 | Cc1cc(N2C(=O)NC(C)(C)C2=O)ccc1CCS(=O)(=O)N1CCC2(CC1)N=C(C1CCC(CCC(F)(F)F)CC1)NC2=O (stereo not drawn) [Compound 864, 5,5-dimethyl-3-[3-methyl-4-(2-{4-oxo-2-[4-(3,3,3-trifluoro-propyl)-cyclohexyl]-1,3,8-triaza-spiro[4.5]dec-1-ene-8-sulfonyl}-ethyl)-phenyl]-imidazolidine-2,4-dione]
8.9 | Cc1cc(N2CCOC2=O)ccc1CCS(=O)(=O)N1CCC2(CC1)N=C(C1CCC(C)CC1)NC2=O (stereo not drawn) [Compound 865, 2-(4-methyl-cyclohexyl)-8-{2-[2-methyl-4-(2-oxo-oxazolidin-3-yl)-phenyl]-ethanesulfonyl}-1,3,8-triaza-spiro[4.5]dec-1-en-4-one]
47 | Cc1cc(N2COCC2=O)ccc1CCS(=O)(=O)N1CCC2(CC1)N=C(C1CCC(C)CC1)NC2=O (stereo not drawn) [Compound 866, 2-(4-methyl-cyclohexyl)-8-{2-[2-methyl-4-(4-oxo-oxazolidin-3-yl)-phenyl]-ethanesulfonyl}-1,3,8-triaza-spiro[4.5]dec-1-en-4-one]
71 | O=C1NC(C2CCC(CCC(F)(F)F)CC2)=NC12CCN(S(=O)(=O)CCc1cccc3c1ccn3C[C@@H](O)CO)CC2 (stereo partly drawn) [Compound 867, 8-{2-[1-((R)-2,3-dihydroxy-propyl)-1H-indol-4-yl]-ethanesulfonyl}-2-[4-(3,3,3-trifluoro-propyl)-cyclohexyl]-1,3,8-triaza-spiro[4.5]dec-1-en-4-one]
77 | Cc1cc(N(C)c2ncc[nH]2)cc(C)c1CCS(=O)(=O)N1CCC2(CC1)N=C(C1CCC(C)CC1)NC2=O (stereo not drawn) [Compound 868, 8-(2-{4-[(1H-imidazol-2-yl)-methyl-amino]-2,6-dimethyl-phenyl}-ethanesulfonyl)-2-(4-methyl-cyclohexyl)-1,3,8-triaza-spiro[4.5]dec-1-en-4-one]
65 | Cc1cc(N2C(=O)NC(C)(C)C2=O)cc(C)c1CCS(=O)(=O)N1CCC2(CC1)N=C(C1CCC(C)CC1)NC2=O (stereo not drawn) [Compound 869, 3-(3,5-dimethyl-4-{2-[2-(4-methyl-cyclohexyl)-4-oxo-1,3,8-triaza-spiro[4.5]dec-1-ene-8-sulfonyl]-ethyl}-phenyl)-5,5-dimethyl-imidazolidine-2,4-dione]
63 | Cc1cc(N2CCNCC2=O)ccc1CCS(=O)(=O)N1CCC2(CC1)N=C(C1CCC(C)CC1)NC2=O (stereo not drawn) [Compound 870, 2-(4-methyl-cyclohexyl)-8-{2-[2-methyl-4-(2-oxo-piperazin-1-yl)-phenyl]-ethanesulfonyl}-1,3,8-triaza-spiro[4.5]dec-1-en-4-one]
109 | O=C1NC(C2CCCCC2)=NC12CCN(S(=O)(=O)CCc1ccc3c(ccn3C[C@H](O)CO)c1)CC2 [Compound 872, 2-cyclohexyl-8-{2-[1-((S)-2,3-dihydroxy-propyl)-1H-indol-5-yl]-ethanesulfonyl}-1,3,8-triaza-spiro[4.5]dec-1-en-4-one]
77 | CC(=O)N(CCO)c1cc(C)c(CCS(=O)(=O)N2CCC3(CC2)N=C(c2cccc(OC(F)(F)F)c2)NC3=O)cc1F [Compound 873, N-(2-fluoro-5-methyl-4-{2-[4-oxo-2-(3-trifluoromethoxy-phenyl)-1,3,8-triaza-spiro[4.5]dec-1-ene-8-sulfonyl]-ethyl}-phenyl)-N-(2-hydroxy-ethyl)-acetamide]
61 | Cc1cc(NS(N)(=O)=O)ccc1CCS(=O)(=O)N1CCC2(CC1)N=C(c1cccc(OC(F)(F)F)c1)NC2=O [Compound 874, N-(3-methyl-4-{2-[4-oxo-2-(3-trifluoromethoxy-phenyl)-1,3,8-triaza-spiro[4.5]dec-1-ene-8-sulfonyl]-ethyl}-phenyl)-sulfamide]
65 | Cc1cc(NS(=O)(=O)NCCCO)ccc1CCS(=O)(=O)N1CCC2(CC1)N=C(c1cccc(OC(F)(F)F)c1)NC2=O [Compound 875, N-(3-hydroxy-propyl)-N′-(3-methyl-4-{2-[4-oxo-2-(3-trifluoromethoxy-phenyl)-1,3,8-triaza-spiro[4.5]dec-1-ene-8-sulfonyl]-ethyl}-phenyl)-sulfamide]
22 | Cc1cc(N(CC#N)C(N)=O)ccc1CCS(=O)(=O)N1CCC2(CC1)N=C(c1cccc(OC(F)(F)F)c1)NC2=O [Compound 876, 1-cyanomethyl-1-(3-methyl-4-{2-[4-oxo-2-(3-trifluoromethoxy-phenyl)-1,3,8-triaza-spiro[4.5]dec-1-ene-8-sulfonyl]-ethyl}-phenyl)-urea]

SMILES | cAMP production activity (%)
Cc1cc(CCS(=O)(=O)N2CCC3(CC2)N=C(c2cccc(OC(F)(F)F)c2)NC3=O)cc(C)c1OCCC(O)CO (stereo not drawn) [Compound 855, 8-{2-[4-(3,4-dihydroxy-butoxy)-3,5-dimethyl-phenyl]-ethanesulfonyl}-2-(3-trifluoromethoxy-phenyl)-1,3,8-triaza-spiro[4.5]dec-1-en-4-one] | 82
O=C1NC(c2cccc(OC(F)(F)F)c2)=NC12CCN(S(=O)(=O)CCc1cc(F)c(OCCC(O)CO)c(F)c1)CC2 (stereo not drawn) [Compound 860, 8-{2-[4-(3,4-dihydroxy-butoxy)-3,5-difluoro-phenyl]-ethanesulfonyl}-2-(3-trifluoromethoxy-phenyl)-1,3,8-triaza-spiro[4.5]dec-1-en-4-one] | 50
